pIC50, pKi: −log10 of the molar value.
Columns and labels:
BACE1 [1] = molecular target: T1, BACE1 (Homo sapiens (Human), UniProt P56817); test: Measurement of Aβ production inhibition in cell (SK-N-BE(2) neuroblastoma cells, Aβ40 ELISA); conditions: SK-N-BE(2) cells, 6 hours
Target sequence in this assay (P56817 46-501): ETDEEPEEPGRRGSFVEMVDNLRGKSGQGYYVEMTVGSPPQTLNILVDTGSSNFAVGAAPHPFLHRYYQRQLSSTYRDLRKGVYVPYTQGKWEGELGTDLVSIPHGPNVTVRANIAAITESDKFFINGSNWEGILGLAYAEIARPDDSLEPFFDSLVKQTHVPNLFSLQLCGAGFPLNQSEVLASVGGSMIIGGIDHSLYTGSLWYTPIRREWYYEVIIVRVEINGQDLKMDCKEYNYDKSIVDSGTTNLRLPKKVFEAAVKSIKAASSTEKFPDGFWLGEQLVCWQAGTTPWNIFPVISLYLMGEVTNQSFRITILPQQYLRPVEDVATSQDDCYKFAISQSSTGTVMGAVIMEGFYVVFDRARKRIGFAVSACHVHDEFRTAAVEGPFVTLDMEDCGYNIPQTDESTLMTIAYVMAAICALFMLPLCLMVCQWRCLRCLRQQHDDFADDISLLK
Experimental: The potency of compounds against BACE1 activity was determined in a cellular assay of Aβ production. […] Test compounds were dissolved in dimethyl sulfoxide and diluted with dimethyl sulfoxide and put into RPMI1640/5% FBS/penicillin-streptomycin media (final dimethyl sulfoxide concentration is 0.5%). […] CellTiter-Glo Substrate was dissolved into CellTiter-Glo Buffer and added to the plates in 95 μL/well. After shaking the plates for 2 minutes, the whole sample was transferred into a white 96-well plate and luminescence was measured for ATP quantification as the cell viability. Aβ concentration measured by ELISA was normalized by the viability of the corresponding cells.

BACE1 [2] = molecular target: T1, BACE1; test: Measurement of BACE1 inhibition by time resolved fluorescence resonance energy transfer (TR-FRET); type: biochemical; conditions: Eu-CEVNLDAEFK-QSY 7 substrate, read-out: Test Example 2 IC50
Target sequence in this assay (P56817 75-416): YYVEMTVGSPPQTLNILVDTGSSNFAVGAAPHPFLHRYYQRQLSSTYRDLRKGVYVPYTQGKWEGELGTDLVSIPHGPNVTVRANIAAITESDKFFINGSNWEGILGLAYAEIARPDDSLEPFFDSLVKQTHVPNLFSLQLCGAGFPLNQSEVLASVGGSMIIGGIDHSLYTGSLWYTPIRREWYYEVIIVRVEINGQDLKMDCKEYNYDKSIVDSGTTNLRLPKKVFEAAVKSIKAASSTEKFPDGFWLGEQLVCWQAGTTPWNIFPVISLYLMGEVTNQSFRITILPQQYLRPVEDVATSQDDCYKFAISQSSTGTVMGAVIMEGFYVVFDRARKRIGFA
Experimental: If the sample contains BACE1 activity, the Eu chelate and the quencher will be separated as the substrate is cleaved. The Eu-signal increases and it can be measured by time-resolved fluorometry, EnVision™, 30 minutes after the substrate (final concentration 300 nM) was added.

BACE1 [3] = molecular target: T1, BACE1; test: Measurement of BACE1 inhibition by fluorescence resonance energy transfer (FRET), MCA substrate; conditions: FRET; for pIC50: read-out: Test Example 1 IC50, MCA-SEVNLDAEFK(DNP)-NH2 substrate, pH 4.4; for pKi: read-out: Test Example 1 BACE1 MCA Ki, MCA substrate
Target sequence in this assay (P56817 75-416): as above

hERG potassium channel = hERG potassium channel (Homo sapiens (Human), UniProt Q12809); test: hERG inhibition, automated planar patch-clamp in hERG-expressing CHO cells; conditions: read-out: Test Example 5 hERG IC50; whole-cell patch clamp, room temperature
Sequence of hERG potassium channel (Q12809 whole entry): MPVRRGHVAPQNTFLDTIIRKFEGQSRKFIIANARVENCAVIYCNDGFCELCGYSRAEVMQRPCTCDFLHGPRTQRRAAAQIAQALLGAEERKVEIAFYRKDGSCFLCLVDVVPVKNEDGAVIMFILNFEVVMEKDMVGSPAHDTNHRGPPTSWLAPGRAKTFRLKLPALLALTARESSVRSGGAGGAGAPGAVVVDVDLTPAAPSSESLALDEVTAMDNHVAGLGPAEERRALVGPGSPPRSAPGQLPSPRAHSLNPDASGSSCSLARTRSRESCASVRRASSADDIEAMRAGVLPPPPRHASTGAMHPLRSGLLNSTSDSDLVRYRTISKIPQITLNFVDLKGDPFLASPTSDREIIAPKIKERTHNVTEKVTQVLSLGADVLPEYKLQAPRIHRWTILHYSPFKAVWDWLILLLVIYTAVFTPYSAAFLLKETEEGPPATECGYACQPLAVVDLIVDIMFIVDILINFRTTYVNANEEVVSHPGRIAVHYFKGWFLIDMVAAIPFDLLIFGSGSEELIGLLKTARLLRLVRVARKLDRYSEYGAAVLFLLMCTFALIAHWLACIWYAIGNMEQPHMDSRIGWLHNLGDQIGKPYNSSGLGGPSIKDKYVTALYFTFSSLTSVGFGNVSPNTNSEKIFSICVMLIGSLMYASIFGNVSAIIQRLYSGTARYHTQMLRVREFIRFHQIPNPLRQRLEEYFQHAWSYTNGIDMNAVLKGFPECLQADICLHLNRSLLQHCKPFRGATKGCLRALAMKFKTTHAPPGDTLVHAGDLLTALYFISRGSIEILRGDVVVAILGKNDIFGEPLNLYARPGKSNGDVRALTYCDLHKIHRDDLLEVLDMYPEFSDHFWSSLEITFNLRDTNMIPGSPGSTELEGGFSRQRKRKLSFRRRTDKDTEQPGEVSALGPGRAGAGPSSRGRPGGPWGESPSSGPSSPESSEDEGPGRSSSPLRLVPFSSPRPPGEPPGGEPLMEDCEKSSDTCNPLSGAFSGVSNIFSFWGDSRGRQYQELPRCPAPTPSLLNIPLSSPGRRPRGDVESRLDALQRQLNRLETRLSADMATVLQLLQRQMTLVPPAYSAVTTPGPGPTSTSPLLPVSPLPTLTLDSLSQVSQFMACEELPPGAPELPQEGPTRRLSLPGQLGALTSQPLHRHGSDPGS

[4] = Test Example 3 IC50, Aβ40 production

Row | Structure (SMILES) | pIC50 (BACE1 [1]; [4]) | pIC50 (BACE1 [2]) | pIC50 (BACE1 [3]) | pIC50 (hERG potassium channel) | pKi (BACE1 [3]) | pIC50 (BACE1 [1]; read-out: Test Example 3 IC50, Aβ40 production)
1 | CC#Cc1cc(-c2ccc3c(c2)C2(COC(N)=N2)C2(COC2)CO3)ccn1 (stereo not shown) [RP 20] | 6.24 | 5.57 |  |  |  | 
2 | CC#Cc1cc(-c2ccc3c(c2)C2(COC(N)=N2)C2(COC2)CO3)ncn1 (stereo not shown) [RP 21] | 6.39 | 5.87 |  |  |  | 
3 | CC#Cc1cncc(-c2ccc3c(c2)C2(COC(N)=N2)C2(COC2)CO3)n1 (stereo not shown) [RP 22] | 5.54 | 5.59 |  |  |  | 
4 | NC1=NC2(CO1)c1cc(C3=CCOCC3)ccc1OCC21COC1 (stereo not shown) [RP 24] |  | 4.48 | 4.42 |  |  | 
5 | Cc1cc(-c2ccc3c(c2)C2(COC(N)=N2)C2(COC2)CO3)ccn1 (stereo not shown) [RP 37] |  | 4.26 |  |  |  | 
6 | NC1=NC2(CO1)c1cc(-c3cncc(OCC(F)F)c3)ccc1OCC21CC1 (stereo not shown) [RP 59] | 7.12 |  | 5.95 | 5.16 |  | 
7 | CCc1cncc(-c2ccc3c(c2)C2(COC(N)=N2)C2(CC2)CO3)c1 (stereo not shown) [RP 63] | 5.48 |  | 5.10 | 5.35 |  | 
8 | COc1ccnc(-c2ccc3c(c2)C2(COC(N)=N2)C2(COC2)C(C)(C)O3)c1 (stereo not shown) [RP 65, 6′-(4-methoxypyridin-2-yl)-2′,2′-dimethyldispiro[1,3-oxazole-4,4′-chromene-3′,3″-oxetan]-2-amine] | 7.31 | 6.41 |  |  |  | 
9 | Cc1cn2ccc(-c3ccc4c(c3)C3(COC(N)=N3)C3(COC3)C3(CCC3)O4)cc2n1 (stereo not shown) [RP 66] |  | 3.87 |  | < 5.00 |  | 
10 | CC#Cc1cncc(-c2ccc3c(c2)C2(CSC(N)=N2)C2(COC2)CO3)c1 (stereo not shown) [RP 68] | 6.30 |  | 6.46 | 5.22 |  | 
11 | NC1=NC2(CO1)c1cc(-c3cccnc3F)ccc1OC1(CCC1)C21COC1 (stereo not shown) [RP 71] | 6.96 |  | 5.97 | < 5.00 |  | 
12 | Cc1cncc(-c2ccc3c(c2)C2(COC(N)=N2)C2(COC2)C2(CCC2)O3)c1 (stereo not shown) [RP 75, 6′-(5-methylpyridin-3-yl)trispiro[cyclobutane-1,2′-chromene-4′,4″-[1,3]oxazole-3′,3′″-oxetan]-2″-amine] | 5.96 |  | 5.44 | < 5.00 |  | 
13 | CCC1Oc2ccc(-c3cncnc3)cc2C2(COC(N)=N2)C12COC2 (stereo not shown) [RP 84] | 6.39 |  | 6.13 | < 5.00 |  | 
14 | NC1=NC2(CO1)c1cc(-c3cncnc3)ccc1OC1(CCCC1)C21COC1 (stereo not shown) [RP 85] | 7.11 |  | 6.50 | < 5.00 |  | 
15 | CC#Cc1cncc(-c2ccc3c(c2)C2(COC(N)=N2)C2(COC2)C(CC)O3)c1 (stereo not shown) [RP 86] | 7.24 |  | 6.84 | 5.10 | 6.97 | 
16 | NC1=NC2(CO1)c1cc(-c3cncnc3)ccc1OC(C1CC1)C21COC1 (stereo not shown) [RP 88] | 5.85 |  | 5.60 | < 5.00 |  | 
17 | CCCC1Oc2ccc(-c3cncnc3)cc2C2(COC(N)=N2)C12COC2 (stereo not shown) [RP 91] | 6.47 |  | 6.18 | < 5.00 |  | 
18 | CC#Cc1cncc(-c2ccc3c(c2)C2(COC(N)=N2)C2(COC2)C(CCC)O3)c1 (stereo not shown) [RP 92] | 7.43 |  | 6.91 | 5.27 | 7.06 | 
19 | NC1=NC2(CO1)c1cc(-c3cncc(C(F)(F)F)c3)ccc1OC1(CCC1)C21COC1 (stereo not shown) [RP 99] | 5.72 |  | 5.53 | < 5.00 |  | 
20 | NC1=NC2(CO1)c1cc(-c3cncnc3)ccc1OCC21CC1 (stereo not shown) [RP 100] | 6.60 |  | 5.58 | < 5.00 |  | 

Row | Structure (SMILES) | pIC50 (BACE1 [1]; [4]) | pIC50 (BACE1 [2]) | pIC50 (BACE1 [3]) | pIC50 (hERG potassium channel) | pKi (BACE1 [3]) | pIC50 (BACE1 [1]; read-out: Test Example 3 IC50, Aβ40 production)
21 | NC1=NC2(CO1)c1cc(-c3cncnc3)c(F)cc1OCC21CC1 (stereo not shown) [RP 102] | 6.62 |  | 5.79 | < 5.00 |  | 
22 | COc1cncc(-c2ccc3c(c2)C2(COC(N)=N2)C2(CC2)CO3)c1 (stereo not shown) [RP 105] | 6.47 |  | 5.53 | 5.10 |  | 
23 | CCOc1cncc(-c2ccc3c(c2)C2(COC(N)=N2)C2(CC2)CO3)c1 (stereo not shown) [RP 106] | 6.80 |  | 5.74 | 5.24 |  | 
24 | CC#Cc1cncc(-c2ccc3c(c2)C2(COC(N)=N2)C2(CC2)CO3)c1 (stereo not shown) [RP 111] | 6.85 |  | 6.54 | 5.70 | 6.60 | 
25 | NC1=NC2(CO1)c1cc(-c3cncc(C(F)F)c3)ccc1OC1(CCC1)C21COC1 (stereo not shown) [RP 118] | 6.00 |  | 5.74 | < 5.00 |  | 
26 | CC1(C)Oc2ccc(-c3cc(F)ccn3)cc2C2(COC(N)=N2)C12COC2 (stereo not shown) [RP 149] | 5.96 | 5.80 |  |  |  | 
27 | CC1(C)Oc2ccc(-c3cncc(Cl)n3)cc2C2(COC(N)=N2)C12COC2 (stereo not shown) [RP 150] | 6.35 | 6.12 |  |  |  | 
28 | COc1ncc(Cl)cc1-c1ccc2c(c1)C1(COC(N)=N1)C1(COC1)C(C)(C)O2 (stereo not shown) [RP 155] | 6.20 | 6.10 |  |  |  | 
29 | CC1(C)Oc2ccc(-c3ccnc(Cl)c3)cc2C2(COC(N)=N2)C12COC2 (stereo not shown) [RP 163] |  | 5.97 |  |  |  | 
30 | COc1cc(-c2ccc3c(c2)C2(COC(N)=N2)C2(COC2)C(C)(C)O3)ccn1 (stereo not shown) [RP 164] |  | 5.64 |  |  |  | 
31 | CC1(C)Oc2ccc(-c3cnc4[nH]ccc4c3)cc2C2(COC(N)=N2)C12COC2 (stereo not shown) [RP 168] | 6.51 | 6.12 |  |  |  | 
32 | CC1(C)Oc2ccc(-c3cc(C#N)ccc3F)cc2C2(COC(N)=N2)C12COC2 (stereo not shown) [RP 170] | 6.40 | 6.23 | 6.00 |  |  | 
33 | CNC(=O)c1cc(F)cc(-c2ccc3c(c2)C2(COC(N)=N2)C2(COC2)C(C)(C)O3)c1 (stereo not shown) [RP 171] | 5.51 | 5.52 | 5.65 |  |  | 
34 | CCC1CC=C(c2ccc3c(c2)C2(COC(N)=N2)C2(COC2)C(C)(C)O3)CC1 (stereo not shown) [RP 172] |  | 5.67 | 5.65 |  |  | 
35 | CC1(C)Oc2ccc(-c3cncc(Cl)c3)cc2C2(COC(N)=N2)C12COC2 (stereo not shown) [RP 173] | 7.14 | 6.62 | 6.40 |  |  | 
36 | CC1(C)Oc2ccc(-c3ccc4[nH]ccc4c3)cc2C2(COC(N)=N2)C12COC2 (stereo not shown) [RP 174, 6′-(1H-indol-5-yl)-2′,2′-dimethyldispiro[1,3-oxazole-4,4′-chromene-3′,3″-oxetan]-2-amine] | 5.47 | 5.66 | 5.47 |  |  | 
37 | CC1(C)Oc2ccc(-c3cccc4cc[nH]c34)cc2C2(COC(N)=N2)C12COC2 (stereo not shown) [RP 175] |  | 5.81 | 5.49 |  |  | 
38 | CC1(C)Oc2ccc(-c3cccc4[nH]ncc34)cc2C2(COC(N)=N2)C12COC2 (stereo not shown) [RP 176] | 6.07 | 6.00 |  |  |  | 
39 | CC1(C)Oc2ccc(-c3ccc4[nH]ncc4c3)cc2C2(COC(N)=N2)C12COC2 (stereo not shown) [RP 177] | 5.82 | 5.67 |  |  |  | 
40 | CC1(C)Oc2ccc(-c3ccc4nonc4c3)cc2C2(COC(N)=N2)C12COC2 (stereo not shown) [RP 178] | 6.09 | 6.13 | 5.94 |  |  | 

Row | Structure (SMILES) | pIC50 (BACE1 [1]; [4]) | pIC50 (BACE1 [2]) | pIC50 (BACE1 [3]) | pIC50 (hERG potassium channel) | pKi (BACE1 [3]) | pIC50 (BACE1 [1]; read-out: Test Example 3 IC50, Aβ40 production)
41 | CC1(C)Oc2ccc(-c3cccc4cccnc34)cc2C2(COC(N)=N2)C12COC2 (stereo not shown) [RP 179] | 5.85 | 5.69 | 5.49 |  |  | 
42 | CC1(C)Oc2ccc(-c3cccc4cnccc34)cc2C2(COC(N)=N2)C12COC2 (stereo not shown) [RP 180] | 6.31 | 5.75 | 5.69 |  |  | 
43 | COC/C=C/c1ccc2c(c1)C1(COC(N)=N1)C1(COC1)C(C)(C)O2 (stereo not shown) [RP 181] | 6.09 | 5.67 | 5.59 |  |  | 
44 | CC1(C)Oc2ccc(-c3ccc4c(c3)OCO4)cc2C2(COC(N)=N2)C12COC2 (stereo not shown) [RP 182] | 5.60 | 5.84 |  |  |  | 
45 | CC1(C)Oc2ccc(-c3cccc(OC(F)(F)F)c3)cc2C2(COC(N)=N2)C12COC2 (stereo not shown) [RP 183] |  | 6.06 | 5.97 |  |  | 
46 | CC1(C)Oc2ccc(-c3ccccc3OC(F)(F)F)cc2C2(COC(N)=N2)C12COC2 (stereo not shown) [RP 184] |  | 5.57 | 5.55 |  |  | 
47 | CC1(C)Oc2ccc(-c3c(F)ccc(F)c3F)cc2C2(COC(N)=N2)C12COC2 (stereo not shown) [RP 185] | 6.12 | 5.90 | 5.69 |  |  | 
48 | CC1(C)Oc2ccc(-c3cccc4[nH]ccc34)cc2C2(COC(N)=N2)C12COC2 (stereo not shown) [RP 186] |  | 5.62 |  |  |  | 
49 | CC1(C)Oc2ccc(-c3ccc(OC(F)F)cc3)cc2C2(COC(N)=N2)C12COC2 (stereo not shown) [RP 187] |  | 5.72 | 5.50 |  |  | 
50 | NC1=NC2(c3cc(-c4cncnc4)ccc3OCC23CC3)c2cccc(F)c21 (stereo not shown) [RP 199] | 6.62 |  | 6.13 | 5.37 |  | 
51 | NC1=NC2(CO1)c1cc(-c3cncnc3)ccc1OC(Cc1ccccc1)C21COC1 (stereo not shown) [RP 200] | 7.59 |  | 6.89 | < 5.00 | 7.04 | 
52 | NC1=NC2(CO1)c1cc(-c3cncnc3)ccc1OC(Cc1ccccc1)C21COC1 (stereo not shown) [RP 202] |  |  | 6.84 | 5.11 | 6.95 | 7.59
53 | NC1=NC2(CO1)c1cc(-c3cncnc3)ccc1OC(CC1CC1)C21COC1 (stereo not shown) [RP 204] | 6.62 |  | 6.41 | < 5.00 |  | 
54 | NC1=NC2(CO1)c1cc(-c3cncnc3)ccc1OC(CC1CC1)C21COC1 (stereo not shown) [RP 207] | 6.80 |  | 6.34 | < 5.00 |  | 
55 | NC1=NC2(CO1)c1cc(-c3cncnc3)ccc1OCC21CC(F)(F)C1 (stereo not shown) [RP 208] | 5.21 |  | 5.11 | < 5.00 |  | 
56 | NC1=NC2(CO1)c1cc(-c3cccnc3)ccc1OC1(CCC1)C21COC1 (stereo not shown) [RP 209] | 6.08 |  | 5.70 | < 5.00 |  | 
57 | NC1=NC2(CO1)c1cc(-c3cnc4ccccc4c3)ccc1OC1(CCC1)C21COC1 (stereo not shown) [RP 211] |  | 4.71 |  |  |  | 
58 | NC1=NC2(COC1)c1cc(-c3cncnc3)ccc1OCC21CC1 (stereo not shown) [RP 215, 6′-(pyrimidin-5-yl)-6″H-dispiro[cyclopropane-1,3′-chromene-4′,3″-[1,4]oxazin]-5″-amine] | 6.62 |  | 5.92 | < 5.00 |  | 

From patent US8975415B2, “Chromane compounds” (CoMentis, Inc., priority 2012, dated 2015)
